“Also recorded” adds a separate entry of the source. Counter-ions that a name gives are not always drawn. Like-named read-outs stand apart in the source and are kept apart here.
Key:
[1] = cited from earlier work
[2] = 7.3 mg in 100 μl of a saturated solution of mannitol, monitored over 5 minutes
[3] = rabbit, in vivo, im, 0.3 mg
Protocol: (§2) In a prospective, controlled, 5-way crossover study, five New Zealand white rabbits (mean weight 4.8±0.2 were investigated on five different days at least four weeks apart, using a protocol described previously (Gu et al., 1999). Each rabbit received EP 10 mg, EP 20 mg, and EP 40 mg as sublingual tablets, a placebo sublingual tablet (EP 0 mg) (as set forth in Table VI), and an EP 0.3 mg IM injection in the right thigh from EpiPen.
(§3) Using the same five New Zealand white rabbits (mean weight 4.8±0.2 Kg) as referred to supra, a prospective, controlled, 5-way crossover study was conducted, using a protocol described above (Gu et al., 1999), wherein each rabbit received an EP 40 mg sublingual tablet from each formulation set forth in Table XII and an EP 0.3 mg IM injection in the right thigh from EpiPen.
(§4) An indwelling catheter (OPTIVA 22G 1″, Johnson & Johnson) was inserted into an ear artery 30 min before dosing A 2 ml blood sample was obtained immediately before dosing and at 5, 10, 15, 20, 30, 40, 60, 90, 120, 150 and 180 minutes afterward.
(§5) Blood samples were refrigerated within 1 hour of sampling and centrifuged at 4° C. Plasma was frozen at −20° C. Before analysis, the plasma was thawed at room temperature and EP was extracted by a solid-liquid extraction process, with an efficiency of 70%-80%. […] The low range calibration curve was linear over the range of 0.1 to 1.0 ng/ml with a coefficient of variation of 0.8% at 0.1 ng and 1.4% at 1.0 ng. The high range calibration curve was linear over the range of 1.0 to 10.0 ng/ml with a coefficient of variation of 4.8% at 1.0 ng and 1.1% at 10.0 ng.
(§6) The AUC, Cmax, and Tmax values for each rabbit were compared using repeated measures ANOVA, Tukey-Kramer tests, and paired Students' t-test using NCSS Statistical Analysis Software (NCSS, Kaysville, Utah). Differences were considered to be significant at p<0.05.

[4] = in vivo; details: New Zealand white, rabbit, im, 0.3 mg
Protocol: as §2, §3, §4, §5, §6

[5] = rabbits; for Serum glucose level: relative to predose baseline; for Serum potassium levels: relative to predose levels
Protocol: (§1) Animals were evaluated for viability once-daily throughout the study. Cageside clinical observations were performed twice-daily from the initiation of dosing until the end of treatment. Body weights were obtained upon receipt, on Study Day 1 and weekly thereafter.

[6] = in vivo; details: for AUC(0-inf) / AUC(0-t) / Cmax / Tmax / half-life: both, NZW, rabbit, plasma
Protocol: Sublingual tablets or IM doses were administered using a Randomized Crossover study design over 5-consecutive weeks.
as §1
Blood samples (approximately 1 mL/time point) were obtained from an indwelling arterial catheter placed approximately 30-minutes prior to initiation of sample collection. Samples were collected immediately prior to dosing (pre-dose baseline) and at approximately 5, 10, 15, 20, 30, 40, 60, 90, 120, and 180 minutes after dosing. At later time points, the samples were obtained by direct needle puncture or by removing the catheter and allowing blood to flow directly from the animal's ear artery into the blood collection tube.
Immediately after collection, the tube was inverted several times to disperse the anticoagulant and then placed on ice until centrifugation. The blood samples were centrifuged (˜2000×g for 10 minutes at 8° C.) within approximately 15-30 minutes of collection to separate the cellular and plasma fractions. The plasma fraction was harvested into screw-capped tubes and stored at approximately −70° C. (±10° C.) until analyzed. […] The remaining red blood cell fraction was discarded.
The method was validated based on the commercial method developed by ESA Biosciences, Inc. (Chelmsford, Mass.). All standards and reagents for the extraction and chromatography were purchased from ESA. Plasma samples, calibrators and quality control (QC) samples were extracted as follows: Each 0.50 mL aliquot of calibration curve standard, QC or unknown sample was mixed with 0.50 mL of working internal standard (I.S.) stock solution (dihydroxybenzylamine [DHBA], 10 ng/mL) in an ESA extraction tube containing alumina and buffer. The extraction tubes were capped and placed on a rocking shaker for 10 minutes. The tubes were placed on a vacuum manifold and the liquid was aspirated to waste. Each tube was then filled with wash solution which was aspirated to waste. Eluting solution (200 μL) was added to each tube. The tubes were capped and vortex-mixed for 10 minutes. The eluting solution was then forced from the tube under pressure into a microcentrifuge tube. The samples were centrifuged for 15 minutes, transferred to an autosampler vial and a 50 μl aliquot was injected into the HPLC.
A freshly prepared standard curve was analyzed along with samples on each day of analysis. […] Calibrator concentrations were 0.5, 1, 2, 4, 8, 12, 16 and 20 ng/mL as determined in the validation study. […] For the determination of unknown sample concentrations, two standard curve ranges were used; 0.5 to 20 ng/mL and 12 to […]. Values of unknown samples less than or equal to 20 ng/mL were reported from the lower range, and values greater than 20 ng/mL were reported from the higher range.
Elimination half-life (T½), maximum concentration (Cmax), time of maximum concentration (Tmax), area under the plasma concentration-time curve from time 0 through the final timepoint (AUC0-t), and area under the plasma concentration-time curve from time 0 extrapolated to infinity (AUC0-∞) were calculated for this study. The noncompartmental model for extravascular administration was used for all pharmacokinetic analyses. The calculation method was linear trapezoidal with linear/log interpolation. The elimination rate constant, lambda z (λz), was determined by WinNonlin using the best fit method.

[7] = rabbits, 0.3 mg IM, mean ± SD, listed as epinephrine
[8] = rabbits, 15 mg sublingual tablet, N = 1
[9] = rabbits, 15 mg sublingual tablet, mean ± SD
[10] = rabbits, 30 mg sublingual tablet, mean ± SD
[11] = rabbits, 30 mg sublingual tablet, mean ± SD, listed as epinephrine
[12] = rabbits, 60 mg sublingual (2x30 mg tablets), mean ± SD

For `CNC[C@H](O)c1ccc(O)c(O)c1` [EPBT, (−)-3,4-dihydroxy-α-[(methylamino)methyl]benzyl alcohol (+)-tartrate (1:1) salt], the Water solubility [1] is listed as 1 gm in 3 ml water and the Dissolution of crystals [2] is listed as “incomplete after 5 minutes; also recorded: slow and incomplete at the end of 5 minutes”.

For `OC[C@@H](O)[C@@H](O)[C@H](O)[C@H](O)CO` [Mannitol], the Water solubility [1] is listed as 1 gm in 5.5 ml water.

Compound `CNC[C@H](O)c1ccc(O)c(O)c1` [Epinephrine] has an AUC [3] of 2431 ± 386 ng/mL/min, a Cmax [4] of 50.3 ± 17.1 ng/mL and a Tmax [4] of 21 min. For the same compound, the Serum glucose level ([5]; 0.3 mg IM) was “increase in serum glucose level”, the Serum potassium levels ([5]; 30 mg sublingual) was “decreased” and the Serum glucose level ([5]; 60 mg sublingual) was “increase in serum glucose level”. The Serum potassium levels ([5]; 60 mg sublingual) was “decreased”, the AUC(0-inf) ([6]; 15 mg) was 196 ng·h/mL and the AUC(0-t) ([6]; 15 mg) was 74.9 ng·h/mL. The Cmax ([6]; 15 mg) was 119 ± 131 ng/mL, the Tmax ([6]; 15 mg) was 59.2 min and the half-life ([6]; 15 mg) was 181 ± 36.3 min. It also gave an AUC(0-inf) ([6]; 30 mg) of 86.7 ng·h/mL, an AUC(0-t) ([6]; 30 mg) of 82.3 ng·h/mL and a Cmax ([6]; 30 mg) of 142 ± 192 ng/mL. It also gave a Tmax ([6]; 30 mg) of 36.7 min, a half-life ([6]; 30 mg) of 86.3 ± 60.5 min and an AUC(0-inf) ([6]; 60 mg) of 300 ng·h/mL. The AUC(0-t) ([6]; 60 mg) was 242 ng·h/mL, the Cmax ([6]; 60 mg) was 234 ± 182 ng/mL and the Tmax ([6]; 60 mg) was 44.2 min. For the same compound, the half-life ([6]; 60 mg) was 141 ± 135 min, the AUC(0-inf) ([6]; im, 0.3 mg) was 78.4 ng·h/mL and the AUC(0-t) ([6]; im, 0.3 mg) was 54.3 ng·h/mL. For the same compound, the Cmax ([6]; im, 0.3 mg) was 54.7 ± 28.3 ng/mL, the Tmax ([6]; im, 0.3 mg) was 24 min and the half-life ([6]; im, 0.3 mg) was 91.3 ± 44.3 min. For the same compound, the Cmax1 ([6]; rabbits, 0.3 mg IM, mean ± SD) was 26.6 ± 9.4 ng/mL, the Cmax2 ([6]; rabbits, 0.3 mg IM, mean ± SD) was 42.7 ± 18.1 ng/mL and the Tmax1 ([6]; rabbits, 0.3 mg IM, mean ± SD) was 9.0 ± 2.2 min. The Cmax2 [6, 7] was 42.7 ± 18.1 ng/mL, the Tmax1 [6, 7] was 9.0 ± 2.2 min and the Cmax4 [6, 8] was 55.10 ng/mL. It also gave a Tmax4 [6, 8] of 180.0 min, a Cmax1 [6, 9] of 55.4 ± 87.6 ng/mL and a Cmax2 [6, 9] of 30.4 ± 25.7 ng/mL. For the same compound, the Cmax3 [6, 9] was 85.2 ± 127.8 ng/mL, the Tmax1 [6, 9] was 9.2 ± 2.0 min and the Tmax3 [6, 9] was 111.7 ± 59.5 min. The Cmax1 [6, 10] was 147.5 ± 215.7 ng/mL, the Cmax2 [6, 10] was 82.2 ± 102.1 ng/mL and the Cmax3 [6, 10] was 45.5 ± 44.3 ng/mL. For the same compound, the Tmax1 [6, 10] was 8.3 ± 4.1 min, the Cmax2 [6, 11] was 82.2 ± 102.1 ng/mL and the Tmax1 [6, 11] was 8.4 ± 4.1 min. The Cmax1 [6, 12] was 154.0 ± 125.4 ng/mL, the Cmax2 [6, 12] was 85.4 ± 35.3 ng/mL and the Cmax3 [6, 12] was 127.8 ± 83.8 ng/mL. The Tmax1 [6, 12] was 14.2 ± 8.6 min and the Tmax1 ([6]; rabbits, 60 mg sublingual (2x30 mg tablets), mean ± SD, listed as epinephrine) was 14.2 ± 8.6 min.
